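1) Cells in 96-well plates. 2) Compound, 48 h, 5 concentrations. 3) Linear interpolation between surrounding doses. 4) Unreached endpoint = highest concentration. GI50 marks 50% less growth.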 Calls of active or inactive are those of the source. Cut-off read from the data, not from the text of the source: active = GI50 up to about 1.1 µM and inactive = higher. Starred links: 1 amine or outer side, 2 acyl side, 3 side chain; linkers in the order of their positions; H or OH if unused. Positions of bridges follow the written chain, without caps; N, C: chain ends. Non-standard residues stand in square brackets, D forms with d. Residues, ends and D or L forms follow the SMILES beside them. *: point of attachment. X40 = CC[C@H](C)[C@@H](N[*:1])[C@@H](O)CC(=O)[*:2]; NMeY = CN[C@@H](Cc1ccc(O)cc1)C(=O)O; dNMeL = CN[C@H](CC(C)C)C(=O)O; Hiv = CC(C)[C@H](O)C(=O)O; Pyruvoyl = CC(=O)C(=O)*

As usually defined, the GI50 is the concentration giving 50% growth inhibition.

Some test systems named below: A498; ACHN; CCRF-CEM; HCC 2998; MDA-MB-435; MOLT-4; Malme-3M; NCI-H522; NCI/ADR-RES; OVCAR-5; RXF 393; SF-539; SK-MEL-2; SNB-19; SNB-75; TK-10; U-251; UACC-257; UO-31.
Test in all cases: DTP human tumour cell line panel, 48 h

For the compound `CC(C)(C)SC1=CCC[C@@H](P(=O)(c2ccccc2)c2ccccc2)[C@@H]2CCC[C@@H]12`, the GI50 is 15.8 µM (inactive) in the assay on A498; 16.5 µM (inactive) in the assay on ACHN; 24.6 µM (inactive) in the assay on CCRF-CEM; 16.2 µM (inactive) with HCC 2998; 15 µM (inactive) with MDA-MB-435; 16 µM (inactive) in the assay on MOLT-4. The GI50 was 19.6 µM (inactive) in the assay with Malme-3M; 15.7 µM (inactive) with NCI-H522; 17.2 µM (inactive) in the assay on NCI/ADR-RES; 13.6 µM (inactive) with OVCAR-5; 13.8 µM (inactive) with RXF 393; 18.8 µM (inactive) with SF-539. Also, the GI50 is 16.5 µM (inactive) in the assay with SK-MEL-2; 16.1 µM (inactive) with SNB-19; 11.8 µM (inactive) in the assay on SNB-75; 17.5 µM (inactive) in the assay with TK-10; 17.5 µM (inactive) in the assay on U-251; 17 µM (inactive) in the assay on UACC-257. For the same compound, in the assay with UO-31, the GI50 is 16.5 µM (inactive).
For `CC[C@H](C)[C@H]1NC(=O)[C@@H](NC(=O)[C@@H](CC(C)C)N(C)C(=O)[C@@H]2CCCN2C(=O)C(C)=O)[C@@H](C)OC(=O)[C@H](Cc2ccc(OC)cc2)N(C)C(=O)[C@@H]2CCCN2C(=O)[C@H](CC(C)C)NC(=O)[C@H](C(C)C)OC(=O)C[C@@H]1O` (Pyruvoyl-P[dNMeL]T[X40][Hiv]LP[NMeY](Me); ester 3-C), the GI50 with A498 is 0.00538 µM (active); with ACHN, 0.0203 µM (active); in the assay with CCRF-CEM it was 0.00224 µM (active); with HCC 2998, 0.00261 µM (active); with MDA-MB-435 it was 0.00485 µM (active); with MOLT-4, 0.00423 µM (active). The GI50 was 0.00538 µM (active) in the assay on Malme-3M; 0.00547 µM (active) in the assay with NCI-H522; 0.226 µM (active) with NCI/ADR-RES; 0.00632 µM (active) with OVCAR-5; 0.00383 µM (active) with RXF 393; 0.00361 µM (active) in the assay with SF-539. Further, the GI50 in the assay with SK-MEL-2 was 0.0047 µM (active); in the assay on SNB-19, 0.00224 µM (active); with SNB-75 it was 0.00482 µM (active); with TK-10 it was 0.00838 µM (active); with U-251 it was 0.00239 µM (active); in the assay with UACC-257, 0.00594 µM (active). Moreover, the GI50 with UO-31 is 0.01 µM (active).
On to `CC(=O)O[C@H]1CCc2c(cc(N)c3c2C(=O)C[C@]2(C)C([C@H](C)CCCC(C)C)CCC32C)C1(C)C` (stereo partly specified), for which the GI50 in the assay with A498 is 73.6 µM (inactive); in the assay with ACHN, > 100 µM (inactive); with CCRF-CEM it was > 100 µM (inactive); in the assay on HCC 2998, > 100 µM (inactive); with MDA-MB-435, 86.7 µM (inactive); with MOLT-4, > 100 µM (inactive). In addition, the GI50 was > 100 µM (inactive) with Malme-3M; > 100 µM (inactive) in the assay with NCI-H522; 42.4 µM (inactive) in the assay with NCI/ADR-RES; > 100 µM (inactive) in the assay on OVCAR-5; > 100 µM (inactive) in the assay on RXF 393; 71.9 µM (inactive) with SF-539. The GI50 with SK-MEL-2 is > 100 µM (inactive); in the assay on SNB-19, > 100 µM (inactive); in the assay on SNB-75 it was > 100 µM (inactive); with TK-10, > 100 µM (inactive); in the assay with U-251, > 100 µM (inactive); in the assay on UACC-257 it was 85.7 µM (inactive). In addition, the GI50 with UO-31 is > 100 µM (inactive).
Regarding `Cc1ccc2c(n1)NC(=O)C(Cc1ccccc1)(N=[N+]=[N-])C2=O` (stereo unspecified), the GI50 in the assay with A498, in the assay on ACHN, with CCRF-CEM, in the assay on HCC 2998, in the assay on MDA-MB-435 and in the assay on MOLT-4 was > 100 µM (inactive) each time. Also, the GI50 with Malme-3M, in the assay on NCI-H522, in the assay with NCI/ADR-RES, in the assay with OVCAR-5, with RXF 393 and in the assay with SF-539 was > 100 µM (inactive) each time. The GI50 in the assay with SNB-19, in the assay on TK-10, with U-251, in the assay on UACC-257 and in the assay with UO-31 was > 100 µM (inactive) each time.
For the compound `O=C1N=C(c2ccccc2)O/C1=C\c1ccccc1`, the GI50 with A498, in the assay on ACHN, in the assay with HCC 2998, with MDA-MB-435, in the assay with MOLT-4 and with Malme-3M was > 100 µM (inactive) in each case. In addition, the GI50 with NCI-H522, in the assay on NCI/ADR-RES, in the assay with OVCAR-5, in the assay with RXF 393, in the assay with SF-539 and in the assay with SK-MEL-2 was > 100 µM (inactive) in each case. Also, the GI50 with SNB-19, in the assay on SNB-75, with TK-10, with U-251, in the assay on UACC-257 and with UO-31 was > 100 µM (inactive) in each case.
Consider `COc1ccc(/[N+]([O-])=C/c2ccc(OC(=S)S)c(OC)c2)cc1`, for which the GI50 was > 100 µM (inactive) in the assay with A498; 75 µM (inactive) with ACHN; > 100 µM (inactive) in the assay on HCC 2998; 9.46 µM (inactive) with MDA-MB-435; 33 µM (inactive) in the assay with MOLT-4; 62.7 µM (inactive) with Malme-3M. The GI50 in the assay with NCI-H522 was 25.8 µM (inactive); in the assay with NCI/ADR-RES it was 22.7 µM (inactive); in the assay with OVCAR-5, > 100 µM (inactive); with RXF 393, 19.6 µM (inactive); in the assay with SF-539, 45.4 µM (inactive); with SK-MEL-2, 35.5 µM (inactive). Besides, the GI50 is 43.6 µM (inactive) in the assay on SNB-19; 16.3 µM (inactive) in the assay with SNB-75; 85.1 µM (inactive) in the assay with TK-10; 36.2 µM (inactive) with U-251; > 100 µM (inactive) with UACC-257; 44.6 µM (inactive) in the assay on UO-31.
`O=c1[nH]nc(Cc2ccc(Cl)cc2)n1/N=C/c1ccco1`: the GI50 with A498, in the assay with ACHN, in the assay on CCRF-CEM, in the assay with HCC 2998, in the assay with MDA-MB-435 and in the assay on MOLT-4 was > 100 µM (inactive) in each case. Also, the GI50 is > 100 µM (inactive) in the assay with Malme-3M; 58.9 µM (inactive) in the assay on NCI-H522; 96.8 µM (inactive) with NCI/ADR-RES; > 100 µM (inactive) in the assay with OVCAR-5; 26.5 µM (inactive) in the assay on RXF 393; 27.4 µM (inactive) in the assay with SF-539. Moreover, the GI50 is 40.1 µM (inactive) in the assay with SK-MEL-2; 25.4 µM (inactive) with SNB-19; 28.6 µM (inactive) in the assay on SNB-75; 39.7 µM (inactive) in the assay on U-251; > 100 µM (inactive) in the assay with UACC-257; > 100 µM (inactive) in the assay with UO-31.
Turning to `C[C@H]1ON2CCC[C@@H]2[C@@H]1C(=O)N1C2CC3CCC2(CS1(=O)=O)C3(C)C` (stereo partly specified), the GI50 in the assay with A498, in the assay on ACHN, in the assay with CCRF-CEM, in the assay on HCC 2998, with MDA-MB-435 and in the assay with Malme-3M was > 100 µM (inactive) in each case. Further, the GI50 in the assay on NCI-H522, in the assay on NCI/ADR-RES, with OVCAR-5, in the assay on RXF 393, with SF-539 and with SK-MEL-2 was > 100 µM (inactive) throughout. The GI50 in the assay with SNB-19, with SNB-75, with TK-10, with U-251 and with UACC-257 was > 100 µM (inactive) each time.
`Cc1cc2nc(C#N)c(N3CCN(c4ccc([N+](=O)[O-])cc4)CC3)nc2cc1C`: the GI50 in the assay with A498 was > 75.2 µM (inactive); in the assay on ACHN it was > 71.3 µM (inactive); with CCRF-CEM, > 100 µM (inactive); in the assay with HCC 2998, > 100 µM (inactive); with MDA-MB-435, > 100 µM (inactive); in the assay with Malme-3M, > 100 µM (inactive). Further, the GI50 in the assay with NCI-H522 was > 54.1 µM (inactive); with NCI/ADR-RES, > 79.1 µM (inactive); with OVCAR-5, > 100 µM (inactive); in the assay with RXF 393 it was > 72.9 µM (inactive); in the assay on SF-539 it was 26.1 µM (inactive); in the assay with SK-MEL-2, > 100 µM (inactive). For the same compound, the GI50 was 67 µM (inactive) in the assay on SNB-19; 63.5 µM (inactive) with SNB-75; > 66.5 µM (inactive) with TK-10; > 74.6 µM (inactive) with U-251; > 100 µM (inactive) in the assay with UACC-257; > 93.8 µM (inactive) in the assay on UO-31.
Take `Cc1ccc(S(=O)(=O)NNC2(NS(=O)(=O)c3ccc(Cl)cc3)C(Cl)=C(Cl)C(=O)c3ccccc32)cc1` (stereo unspecified): the GI50 in the assay with A498 was 17.8 µM (inactive); in the assay on ACHN it was 16.1 µM (inactive); in the assay on CCRF-CEM, 22.9 µM (inactive); with HCC 2998, 18.5 µM (inactive); in the assay on MDA-MB-435, 18.8 µM (inactive); in the assay with MOLT-4, 25.6 µM (inactive). Also, the GI50 in the assay on Malme-3M is 17.3 µM (inactive); with NCI-H522, 21.7 µM (inactive); with NCI/ADR-RES, 23.1 µM (inactive); in the assay on OVCAR-5, 18.3 µM (inactive); in the assay with RXF 393, 17 µM (inactive); in the assay with SF-539, 21.2 µM (inactive). Moreover, the GI50 was 20 µM (inactive) in the assay on SK-MEL-2; 16.3 µM (inactive) in the assay with SNB-19; 16.8 µM (inactive) in the assay with TK-10; 21.8 µM (inactive) with U-251; 17.6 µM (inactive) in the assay with UACC-257; 26.8 µM (inactive) in the assay on UO-31.

The values above are taken from ChEMBL document CHEMBL1201862, “PubChem BioAssay data set” (2004).
